Test results published in patent publication US11767352B2, “Histone anti-cancer vaccines” (DEUTSCHES KREBSFORSCHUNGSZENTRUM, priority 2015, dated 2023).

Tests used:
[1] = system: A2.DR1 mice; assay: Flow cytometry detection of peptide-specific CD8 T-cells with HLA-A2 dextramer after vaccination of A2.DR1 mice; type: in vivo; details: splenocytes after vaccination in Montanide, gated on CD45+ CD3+ cells
Source text: (§1) Numbers of spots to MOG35-55 as negative control were subtracted. Mean+/−s.e.m. of n=4 mice per group and representative ELISpots are shown. **p<0.01. (B/C): H3.3-peptide libraries are used to assess MHC binding epitopes in silico: MHC peptide binding predictions for H3.3 K27M (red)- and K27 wt (blue)-containing 10-mer peptides to HLA-A*02:01 using NetMHC algorithm (B) and MHC peptide binding analysis for H3.3 K27M26-35 (red) or K27 wt26-35 (blue) depending on MHC-class-I haplotype (C). Peptides with logscore affinity >0.4 are defined as potential binders. […] Re-stimulation with the vehicle DMSO served as control; gated on CD45+ CD3+ CD8+ cells.
(§2) As antigen presentation and induction of an effective immune response is critically dependent on MHC haplotype, binding affinities of K27M26-35 to the most frequent class I haplotypes were analyzed. […] Thus, anti-tumor efficacy of H3.3 K27M peptide vaccination was further investigated in a syngeneic HLA-A*02 tumor model.

[2] = system: A2.DR1 mice; assay: Intracellular flow cytometry of splenocyte IFNγ responses after vaccination of A2.DR1 mice; type: in vivo; details: for IFNγ+ CD8+ T-cell response (intracellular flow cytometry): vaccination with peptide in Montanide, re-stimulation with K27M26-35 or K27 wt26-35, gated on CD45+ CD3+ CD8+ cells
Source text: as §1, §2

Sequence: RMSAPSTGGV (listed as Homo sapiens) [K27M26-35, peptide corresponding to amino acids 26-35 of K27M Histone H3.3]
- peptide-specific CD8+ T-cells detected with HLA-A2 dextramer [1]: could be detected directly
- peptide-specific CD8+ T-cells detected with HLA-A2 dextramer ([1]; listed as H3.3 K27M26-35): CD8-positive T-cells are detected with HLA-A2 multimers
- immune response, HLA-A*02 restricted (summary statement) ([2]; according to the examples): surprisingly strong immune response
- IFNγ+ CD8+ T-cell response (intracellular flow cytometry) [2]: induced IFNγ^+CD8^+-driven mutation-specific cytotoxic T-cell responses
- IFNγ+ CD8+ T-cell response (intracellular flow cytometry) ([2]; listed as H3.3 K27M26-35): induces a mutation-specific CD8-driven T-cell response
